Laboratory results from patent EP1362858A1, “Pyrrolopyrimidinone derivates, process of preparation and use” (SK Chemicals Co., Ltd., priority 2002, dated 2003).
Where two headings read alike, the source gives them in different places.

Molecular target: rabbit platelet PDE V (Oryctolagus cuniculus, UniProt G1SX67)
Test: PDE V inhibition, PDE SPA assay kit with [3H]-cGMP
Type: biochemical
Method: The rabbit platelet PDE V was prepared using the method described by Hidaka et al. (Biochim. Biophys. Acta., 429: 485 - 497, 1976) with minor modification. The plateletrich plasma (PRP) was prepared by centrifugation of freshly obtained heparinized whole blood at 360 g. Platelets were isolated from the PRP by centrifugation at 1,200 g. Platelet homogenates were prepared in the homogenization buffer (50 mM Tris-HCl buffer containing 1 mM MgCl2, pH 7.4) by sonication for 30 s per 1 mL. The homogenized solutions were then centrifuged at 40,000 × g for 2 h at 4 °C. The supernatant was loaded on the DEAE-cellulose column (20 mL bed volume, Sigma) pre-equilibrated with equilibration buffer (50 mM Tris-acetate containing 3.75 mM 2-mercaptoethanol, pH 6.0). The column was then washed with 60 mL of equilibration buffer. The PDE isozymes were eluted using a continuous gradient of 0 to 600 mM sodium acetate in the equilibration buffer (60 mL total volume). The 1.0 mL fractions were collected. A flow rate of 60 mL/h was used throughout the ion-exchange chromatography procedure. PDE activities on cAMP and cGMP were characterized as described below. The characterized fractions were pooled and stored at -80 °C until the inhibition studies.
The cyclic nucleotide PDE V activity was determined using PDE SPA assay kit (Amersham Pharmacia biotech, UK). Each reaction mixture (100 µL total volume) consisted of the column elute containing PDE V (10 µL), [^3H]-cGMP (5 µCi/mL), bovine serum albumin (0. 5 mg/mL), and MgCl2 (5 mM) in Tris-HCl buffer (15 mM, pH 7. 5). The reactions were initiated by the addition of PDE V and the samples were incubated at 30 °C for 30 min, after which the reaction was stopped by the addition of 50 µL of SPA beads. The reaction tube was then settled for 20 min and was counted on the scintillation counter (Tri-carb 1500, Packard, USA). For the inhibition study of PDE V activity, the test compounds were dissolved in dimethyl sulfoxide (DMSO) and was diluted with distilled water. The final concentration of DMSO was less than 0. 2% (v/v).

[1] = in vitro inhibition of cGMP PDE V, 30 °C, 30 min, read-out: IC50

Row | Compound | IC50 [1] | IC50
1 | CCCOc1ccc(S(=O)(=O)N2CCN(CCOC(C)=O)CC2)cc1-c1nc2c(CCC)cn(CC)c2c(=O)[nH]1 [Example 7, 2-{5-[4-(2-Acetoxyethyl)piperazin-1-ylsulfonyl]-2-n-propoxyphenyl}-5-ethyl-7-n-propyl-3,5-dihydro-4H-pyrrolo[3,2-d]pyrimidin-4-one] | 2.84 nM | 
2 | CCCOc1ccc(S(=O)(=O)N2CCN(CCOC(=O)CC)CC2)cc1-c1nc2c(CCC)cn(CC)c2c(=O)[nH]1 [Example 10, 5-Ethyl-2-{5-[4-(2-propionyloxyethyl)piperazin-1-ylsulfonyl]-2-n-propoxyphenyl}-7-n-propyl-3,5-dihydro-4H-pyrrolo[3,2-d]pyrimidin-4-one] | 5.73 nM | 
3 | CCCOc1ccc(S(=O)(=O)N2CCN(CCOC(=O)CCC)CC2)cc1-c1nc2c(CCC)cn(CC)c2c(=O)[nH]1 [Example 12, 2-{5-[4-(2-Butyryloxyethyl)piperazin-1-ylsulfonyl]-2-n-propoxyphenyl}-5-ethyl-7-n-propyl-3,5-dihydro-4H-pyrrolo[3,2-d]pyrimidin-4-one] | 8.87 nM | 
4 | CCCOc1ccc(S(=O)(=O)N2CCN(CCOC(=O)C(C)C)CC2)cc1-c1nc2c(CCC)cn(CC)c2c(=O)[nH]1 [Example 14, 5-Ethyl-2-{5-[4-(2-isobutyryloxyethyl)piperazin-1-ylsulfonyl]-2-n-propoxyphenyl}-7-n-propyl-3,5-dihydro-4H-pyrrolo[3,2-d]pyrimidin-4-one] | 8.8 nM | 
5 | CCCOc1ccc(S(=O)(=O)N2CCN(CCOC(=O)c3ccccc3)CC2)cc1-c1nc2c(CCC)cn(CC)c2c(=O)[nH]1 [Example 16, 2-{5-[4-(2-Benzoyloxyethyl)piperazin-1-ylsulfonyl]-2-n-propoxyphenyl}-5-ethyl-7-n-propyl-3,5-dihydro-4H-pyrrolo[3,2-d]pyrimidin-4-one] | 14.4 nM | 
6 | CCCOc1ccc(S(=O)(=O)N2CCN(CCOC(=O)OCC)CC2)cc1-c1nc2c(CCC)cn(CC)c2c(=O)[nH]1 [Example 17, 2-{5-[4-(2-Ethoxycarbonyloxyethyl)piperazin-1-ylsulfonyl]-2-n-propoxyphenyl}-5-ethyl-7-n-propyl-3,5-dihydro-4H-pyrrolo[3,2-d]pyrimidin-4-one] | 7.65 nM | 
7 | CCCOc1ccc(S(=O)(=O)N2CCN(CCOC(C)=O)CC2)cc1-c1nc2c(CCCF)cn(CC)c2c(=O)[nH]1 [Example 19, 2-{5-[4-(2-Acetoxyethyl)piperazin-1-ylsulfonyl]-2-n-propoxyphenyl}-5-ethyl-7-(3-fluoropropyl)-3,5-dihydro-4H-pyrrolo[3,2-d]pyrimidin-4-one] | 1.48 nM | 
8 | CCCOc1ccc(S(=O)(=O)N2CCN(CCOC(=O)Cc3ccccc3)CC2)cc1-c1nc2c(CCC)cn(CC)c2c(=O)[nH]1 [Example 24, 5-Ethyl-2-{5-[4-(2-phenylacetoxyethyl)piperazin-1-ylsulfonyl]-2-n-propoxyphenyl}-7-n-propyl-3,5-dihydro-4H-pyrrolo[3,2-d]pyrimidin-4-one] |  | 8.68 nM
